Patent US9890117B2, “Benzamide compounds and related methods of use” (Northwestern University, priority 2012, dated 2018)
Where a name gives a salt, the structure may show the parent alone.

Target: T1, SIRT2 (Homo sapiens, UniProt Q8IXJ6)
T1 construct: recombinant active enzymes SIRT1, SIRT2, and the catalytically active fragment of SIRT3
T1 sequence (Q8IXJ6 1-389): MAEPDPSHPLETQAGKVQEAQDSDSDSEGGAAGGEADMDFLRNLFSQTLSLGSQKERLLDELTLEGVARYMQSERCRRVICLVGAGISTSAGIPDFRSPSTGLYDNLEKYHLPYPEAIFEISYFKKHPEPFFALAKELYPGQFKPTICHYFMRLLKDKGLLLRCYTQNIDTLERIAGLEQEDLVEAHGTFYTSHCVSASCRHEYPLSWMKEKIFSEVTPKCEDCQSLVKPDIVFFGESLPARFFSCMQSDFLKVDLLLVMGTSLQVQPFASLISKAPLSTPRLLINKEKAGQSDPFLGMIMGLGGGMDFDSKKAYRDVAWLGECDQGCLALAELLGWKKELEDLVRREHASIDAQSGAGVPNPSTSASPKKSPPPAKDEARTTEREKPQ
Test: Fluor-de-Lys biochemical sirtuin deacetylation assay, SIRT2
Details: for SIRT2 inhibition potency compared with AK-1: dose-response, five doses, side-by-side with AK-1

[1] = sulfone, sulfoxide, thioether derivatives of C2-8 scaffold

| SMILES | inhibition at 10 µM [1] | inhibition at 10 µM | further results |
| --- | --- | --- | --- |
| CN(c1ccc(Cl)cc1)S(=O)(=O)c1cccc(C(=O)NCc2ccccn2)c1 [Compound 53, 3-(N-(4-chlorophenyl)-N-methylsulfamoyl)-N-(pyridin-2-ylmethyl)benzamide] |  |  | % of SIRT2 Inhibition at 10 μM (C2-8 derivatives): 0% |
| CN(c1ccc(Cl)cc1)S(=O)(=O)c1cccc(C(=O)NCc2ccccn2)c1 [Compound 62, 3-(N-(4-chlorophenyl)-N-methylsulfamoyl)-N-(pyridin-2-ylmethyl)benzamide] |  |  | % of SIRT2 Inhibition at 10 μM (C2-8 derivatives): 3% |
| CN(c1ccc(Br)cc1)S(=O)(=O)c1cccc(C(=O)Nc2ccc(Cl)nn2)c1 [Compound 85, 3-(N-(4-bromophenyl)-N-methylsulfamoyl)-N-(6-chloropyridazin-3-yl)benzamide] |  |  | inhibition at 10 µM (C2-8 derivatives): 16% |
| CC(=O)c1ccc(NC(=O)c2cccc(S(=O)(=O)N(C)c3ccc(C(C)=O)cc3)c2)cc1 [Compound 109, N-(4-Acetylphenyl)-3-(N-(4-acetylphenyl)-N-methylsulfamoyl)benzamide] |  |  | SIRT2 inhibition potency compared with AK-1: equal or just slightly better potency |
| CN(c1ccc(S(C)(=O)=O)cc1)S(=O)(=O)c1cccc(C(=O)Nc2ccc(Cl)cc2)c1 [Compound 117, N-(4-Chlorophenyl)-3-(N-methyl-N-(4-(methylsulfonyl)phenyl)sulfamoyl)benzamide] |  |  | SIRT2 inhibition potency compared with AK-1: equal or just slightly better potency |
| C[S+]([O-])c1cccc(NC(=O)c2cccc(S(=O)(=O)N3CCCCCC3)c2)c1 (stereo not drawn) [Compound 138, 3-(azepan-1-ylsulfonyl)-N-(3-(methylsulfinyl)phenyl)benzamide] |  |  | % of SIRT2 Inhibition at 10 μM (AK-1 derivatives): 4% |
| C[S+]([O-])c1cccc(NC(=O)c2cccc(S(=O)(=O)N3CCCCCC3)c2)c1 (stereo not drawn) [Compound 141, 3-(azepan-1-ylsulfonyl)-N-(3-(methylsulfinyl)phenyl)benzamide] |  |  | % of SIRT2 Inhibition at 10 μM (AK-1 derivatives): 1% |
| O=C(Nc1ccc(Cl)cc1)c1cccc(S(=O)(=O)Cc2ccc(Cl)cc2)c1 [Compound 171, 3-((4-chlorobenzyl)sulfonyl)-N-(4-chlorophenyl)benzamide] | 0% |  |  |
| O=C(Nc1ccc(Br)cc1)c1cccc(S(=O)(=O)Cc2ccc(Cl)cc2)c1 [Compound 172, N-(4-bromophenyl)-3-((4-chlorobenzyl)sulfonyl)benzamide] | 0% |  |  |
| O=C(Nc1ccc(Cl)cn1)c1cccc(S(=O)(=O)Cc2ccc(Cl)cc2)c1 [Compound 173, 3-((4-chlorobenzyl)sulfonyl)-N-(5-chloropyridin-2-yl)benzamide] | 2% |  |  |
| C[S+]([O-])c1ccc(NC(=O)c2cccc(S(=O)(=O)Cc3ccc(Cl)cc3)c2)cc1 (stereo not drawn) [Compound 175, 3-((4-chlorobenzyl)sulfonyl)-N-(4-(methylsulfinyl)phenyl)benzamide] | 31% |  |  |
| N#Cc1ccc(NC(=O)c2cccc(S(=O)(=O)Cc3ccc(Cl)cc3)c2)nc1 [Compound 176, 3-((4-chlorobenzyl)sulfonyl)-N-(5-cyanopyridin-2-yl)benzamide] | 36% |  |  |
| CS(=O)(=O)c1ccc(NC(=O)c2cccc(S(=O)(=O)Cc3ccc(Cl)cc3)c2)cc1 [Compound 177, 3-((4-chlorobenzyl)sulfonyl)-N-(4-(methylsulfonyl)phenyl)benzamide] | 17% |  |  |
| CC(=O)c1ccc(NC(=O)c2cccc(S(=O)(=O)Cc3ccc(Cl)cc3)c2)cc1 [Compound 178, N-(4-acetylphenyl)-3-((4-chlorobenzyl)sulfonyl)benzamide] | 23% |  |  |
| O=C(Nc1ccc(Cl)nn1)c1cccc(S(=O)(=O)Cc2ccc(Cl)cc2)c1 [Compound 179, 3-((4-chlorobenzyl)sulfonyl)-N-(6-chloropyridazin-3-yl)benzamide] | 0% |  |  |
| COc1ccc(CS(=O)(=O)c2cccc(C(=O)Nc3ccc(C#N)cc3)c2)cc1 [Compound 180, N-(4-cyanophenyl)-3-((4-methoxybenzyl)sulfonyl)benzamide] | 50% |  |  |
| N#Cc1ccc(NC(=O)c2cccc(SCc3ccc(Cl)cc3)c2)cc1 [Compound 181, 3-((4-chlorobenzyl)thio)-N-(4-cyanophenyl)benzamide] | 81% |  |  |
| CSc1ccc(CSc2cccc(C(=O)Nc3ccc(C#N)cc3)c2)cc1 [Compound 183, N-(4-cyanophenyl)-3-((4-(methylthio)benzyl)thio)benzamide] | 83% |  |  |
| N#Cc1ccc(NC(=O)c2cccc([S+]([O-])Cc3ccc(Cl)cc3)c2)cc1 (stereo not drawn) [Compound 186, N-(4-cyanophenyl)-3-((4-chlorobenzyl)sulfinyl)benzamide] | 47% |  |  |
| C[S+]([O-])c1ccc(NC(=O)c2cccc([S+]([O-])Cc3ccc(Cl)cc3)c2)cc1 (stereo not drawn) [Compound 187, 3-((4-chlorobenzyl)sulfinyl)-N-(4-(methylsulfinyl)phenyl)benzamide] | 24% |  |  |
| C[S+]([O-])c1ccc(NC(=O)c2cccc(S(=O)(=O)Cc3ccc(Cl)cc3)c2)cc1 (stereo not drawn) [Compound 188, 3-((4-chlorobenzyl)sulfonyl)-N-(4-(methylsulfinyl)phenyl)benzamide] |  |  | % of SIRT2 Inhibition at 10 μM [1]: 18% |
| COc1ccc(C[S+]([O-])c2cccc(C(=O)Nc3ccc(C#N)cc3)c2)cc1 (stereo not drawn) [Compound 189, N-(4-cyanophenyl)-3-((4-methoxybenzyl)sulfinyl)benzamide] | 21% |  |  |

Continued, in another order:

| inhibition at 10 µM [1] | inhibition at 10 µM | SMILES | further results |
| --- | --- | --- | --- |
|  | 15% | CN(c1ccc(Cl)cc1)S(=O)(=O)c1cccc(C(=O)Nc2ccc(CN)cc2)c1 [Compound 203Aa, N-(4-(aminomethyl)phenyl)-3-(N-(4-chlorophenyl)-N-methylsulfamoyl)benzamide] |  |
|  | 0% | CN(c1ccc([S+](C)[O-])cc1)S(=O)(=O)c1cccc(C(=O)Nc2ccc(Cl)cc2F)c1 (stereo not drawn) [Compound 203Ad, N-(4-chloro-2-fluorophenyl)-3-(N-methyl-N-(4-(methylsulfinyl)phenyl)sulfamoyl)-benzamide] |  |
|  | 0% | CN(C(=O)c1ccnc(S(=O)(=O)N(C)c2ccc(Cl)cc2)c1)c1ccc(S(C)(=O)=O)cc1 [Compound 203Ao, 2-(N-(4-chlorophenyl)-N-methylsulfamoyl)-N-methyl-N-(4-(methylsulfonyl)phenyl)-isonicotinamide] |  |
|  | 38% | C[C@@H](N)c1ccc(N(C)S(=O)(=O)c2cccc(C(=O)Nc3ccc(C#N)cc3)c2)cc1 [Compound 203At, (R)-3-(N-(4-(1-aminoethyl)phenyl)-N-methylsulfamoyl)-N-(4-cyanophenyl)-benzamide hydrochloride] |  |
|  | 39% | C[C@H](N)c1ccc(N(C)S(=O)(=O)c2cccc(C(=O)Nc3ccc(C#N)cc3)c2)cc1 [Compound 203Au, (S)-3-(N-(4-(1-aminoethyl)phenyl)-N-methylsulfamoyl)-N-(4-cyanophenyl) benzamide hydrochloride] |  |
|  | 51% | CN(c1ccc(O)cc1)S(=O)(=O)c1cccc(C(=O)Nc2ccc(C#N)cc2)c1 [Compound 203Ax, N-(4-cyanophenyl)-3-(N-(4-hydroxyphenyl)-N-methylsulfamoyl)benzamide] |  |
|  | 0% | Cc1cc(Br)ccc1NC(=O)c1cccc(S(=O)(=O)N(C)c2ccc(Br)cc2)c1 [Compound 203e, N-(4-bromo-2-methylphenyl)-3-(N-(4-bromophenyl)-N-methylsulfamoyl)benzamide] |  |
|  | 43% | Nc1cccc(NC(=O)c2cccc(S(=O)(=O)N3CCCCCC3)c2)c1 [Compound 203i, N-(3-aminophenyl)-3-(azepan-1-ylsulfonyl)benzamide] |  |
|  | 61% | CN(C)c1cccc(NC(=O)c2cccc(S(=O)(=O)N3CCCCCC3)c2)c1 [Compound 203j, 3-(azepan-1-ylsulfonyl)-N-(3-(dimethylamino)phenyl)benzamide] |  |
|  | 30% | CN(c1ccc(Br)cc1)S(=O)(=O)c1cccc(C(=O)Nc2ccc(Br)cc2F)c1 [Compound 203r, N-(4-bromo-2-fluorophenyl)-3-(N-(4-bromophenyl)-N-methylsulfamoyl)benzamide] |  |
|  | 17% | CN(C(=O)c1cccc(S(=O)(=O)N(C)c2ccc(Br)cc2)c1)c1ccc(F)cc1F [Compound 203t, 3-(N-(4-bromophenyl)-N-methylsulfamoyl)-N-(2,4-difluorophenyl)-N-methyl-benzamide] |  |
|  | 19% | CS(=O)(=O)c1ccc(CS(=O)(=O)c2cccc(C(=O)Nc3ccc(C#N)cc3)c2)cc1 [Compound 212a, N-(4-cyanophenyl)-3-((4-(methylsulfonyl)benzyl)sulfonyl)benzamide] |  |
|  | 92% | C[C@@H](Oc1cccc(C(=O)Nc2ccc(C#N)cc2)c1)c1ccc(C#N)cc1 [Compound 216Ag, (R)—N-(4-cyanophenyl)-3-(1-(4-cyanophenyl)ethoxy)benzamide] |  |
|  | 41% | CC(Oc1cccc(C(=O)Nc2ccc(C#N)cc2)c1)c1ccc(C2COC2)cc1 (stereo not drawn) [Compound 216Ah, N-(4-cyanophenyl)-3-(1-(4-(oxetan-3-yl)phenyl)ethoxy)benzamide] |  |
|  | 80% | CC(=O)c1ccc(C(C)(C)Oc2cccc(C(=O)Nc3ccc(C#N)cc3)c2)cc1 [Compound 216Ai, 3-((2-(4-acetylphenyl)propan-2-yl)oxy)-N-(4-cyanophenyl)benzamide] |  |
|  | 43% | CC(Oc1cccc(C(=O)Nc2ccc(C#N)cc2)c1)c1ccc(C2(C)COC2)cc1 (stereo not drawn) [Compound 216Aj, N-(4-cyanophenyl)-3-(1-(4-(3-methyloxetan-3-yl)phenyl)ethoxy)benzamide] |  |
|  | 98% | CC(=O)c1ccc([C@@H](C)Oc2cccc(C(=O)Nc3ccc(C#N)cc3)c2)cc1 [Compound 216Ak, (R)-3-(1-(4-acetylphenyl)ethoxy)-N-(4-cyanophenyl)benzamide] |  |
